Measurements from article PMC12413947, “Caffeine Acts as an Agonist of Siglec-6, Inhibits MRGPRX2-Triggered Mast Cell Degranulation and Anaphylactoid Reactions” (Mediators of Inflammation, 2025).

Target: T1, Siglec-6 (Homo sapiens, UniProt O43699)
T1 construct: gene SIGLEC6; captured on CM5 chip
Assay: surface plasmon resonance (Biacore T200)
Assay type: binding
Source text: surface plasmon resonance (Biacore T200) on Siglec-6 | The binding affinity between caffeine and Siglec-6 protein is with a calculated KD of […]

T1 sequence (O43699 27-347 limits assumed): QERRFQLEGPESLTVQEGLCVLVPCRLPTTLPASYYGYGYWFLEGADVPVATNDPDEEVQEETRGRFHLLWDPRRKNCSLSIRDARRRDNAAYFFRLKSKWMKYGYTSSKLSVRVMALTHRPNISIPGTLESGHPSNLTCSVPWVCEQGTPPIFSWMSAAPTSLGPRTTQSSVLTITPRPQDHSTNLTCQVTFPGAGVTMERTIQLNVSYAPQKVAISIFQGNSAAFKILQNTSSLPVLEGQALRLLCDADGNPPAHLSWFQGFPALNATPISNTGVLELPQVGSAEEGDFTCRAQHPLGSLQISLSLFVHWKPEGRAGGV

Q: With Cn1c(=O)c2c(ncn2C)n(C)c1=O [caffeine] as the compound, how does the Kd read?
A: 176 nM
